Source: PMC7824903, “Dual Carbonic Anhydrase IX/XII Inhibitors and Carbon Monoxide Releasing Molecules Modulate LPS-Mediated Inflammation in Mouse Macrophages” (Antioxidants, 2021)

Experiments:
hCA IX [1] = biological target: T1, hCA IX (Homo sapiens, UniProt Q16790); test: stopped-flow CO2 hydrase assay; format: biochemical
T1 construct: gene CA9; recombinant, obtained in-house

hCA IX [2] = biological target: T1, hCA IX; test: stopped-flow CO2 hydrase assay; format: biochemical; settings: CO2 […], […] Hepes pH […] Na2SO4, […] min preincubation at room temperature
hCA XII [3] = biological target: T2, hCA XII (Homo sapiens, UniProt O43570); test: stopped-flow CO2 hydrase assay; format: biochemical; settings: CO2 […], […] Hepes pH […] Na2SO4, […] min preincubation at room temperature
T2 construct: gene CA12; recombinant, obtained in-house
T2 sequence (O43570 30-289 limits assumed): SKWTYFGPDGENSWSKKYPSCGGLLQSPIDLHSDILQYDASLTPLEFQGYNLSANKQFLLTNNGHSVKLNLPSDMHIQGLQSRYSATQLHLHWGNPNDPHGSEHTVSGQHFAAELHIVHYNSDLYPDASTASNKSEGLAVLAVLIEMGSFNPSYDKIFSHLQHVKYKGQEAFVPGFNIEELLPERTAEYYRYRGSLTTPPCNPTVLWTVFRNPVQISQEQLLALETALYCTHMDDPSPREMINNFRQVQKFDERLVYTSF

hCA IX [4] = biological target: T1, hCA IX; test: biochemical; design: Stopped-flow CO2 hydrase assay, phenol red absorbance at 557 nm, KI by Cheng-Prusoff
Method: (§1) An Applied Photophysics stopped-flow instrument has been used for assaying the CA catalysed CO2 hydration activity. Phenol red (at a concentration of 0.2 mM) has been used as indicator, working at the absorbance maximum of 557 nm, with 20 mM Hepes (pH 7.5) as buffer, and 20 mM Na2SO4 (for maintaining constant the ionic strength), following the initial rates of the CA-catalyzed CO2 hydration reaction for a period of 10–100 s. The CO2 concentrations ranged from 1.7 to 17 mM for the determination of the kinetic parameters and inhibition constants. For each inhibitor at least six traces of the initial 5–10% of the reaction have been used for determining the initial velocity. The uncatalyzed rates were determined in the same manner and subtracted from the total observed rates. Stock solutions of inhibitor (0.1 mM) were prepared in distilled-deionized water and dilutions up to 0.01 nM were done thereafter with the assay buffer. Inhibitor and enzyme solutions were preincubated together for 15 min at room temperature prior to assay, to allow for the formation of the E-I complex. The inhibition constants were obtained by non-linear least-squares methods using PRISM 3 and the Cheng–Prusoff equation, as reported earlier, and represent the mean from at least three different determinations. All CA isoforms were recombinant ones obtained in-house as reported earlier. […] DCH/CO-RM derivatives 1–10 were therefore investigated as inhibitors of the hCAs I, II, IX, and XII by means of the Stopped-Flow CO2 hydrase assay.

hCA XII [5] = biological target: T2, hCA XII; test: biochemical; design: Stopped-flow CO2 hydrase assay, phenol red absorbance at 557 nm, KI by Cheng-Prusoff
Method: as §1

hCA II = biological target: T3, hCA II (Homo sapiens, UniProt P00918); test: biochemical; design: Stopped-flow CO2 hydrase assay, phenol red absorbance at 557 nm, KI by Cheng-Prusoff
T3 construct: gene CA2; recombinant, obtained in-house
Method: as §1

hCA I = biological target: T4, hCA I (Homo sapiens, UniProt P00915); test: biochemical; design: Stopped-flow CO2 hydrase assay, phenol red absorbance at 557 nm, KI by Cheng-Prusoff
T4 construct: gene CA1; recombinant, obtained in-house
T4 sequence (P00915 2-261): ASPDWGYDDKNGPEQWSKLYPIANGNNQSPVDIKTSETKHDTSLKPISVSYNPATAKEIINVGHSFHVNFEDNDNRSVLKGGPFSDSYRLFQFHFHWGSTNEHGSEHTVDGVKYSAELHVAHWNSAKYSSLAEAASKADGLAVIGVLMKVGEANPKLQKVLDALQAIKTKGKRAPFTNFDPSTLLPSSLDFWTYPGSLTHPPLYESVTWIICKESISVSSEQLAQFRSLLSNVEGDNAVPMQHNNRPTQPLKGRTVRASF
Method: as §1

hCA XII [6] = biological target: T2, hCA XII; test: stopped-flow CO2 hydrase assay; format: biochemical

| Compound | Ki (hCA IX [4]) [nM] | Ki (hCA XII [5]) [nM] | Ki (hCA II) [nM] | Ki (hCA I) [nM] | also measured |
| --- | --- | --- | --- | --- | --- |
| C#CCOC1=NS(=O)(=O)OC(C)=C1 [a] | – | – | – | – | Ki (hCA IX [1]; CO2 […], […] Hepes pH […] Na2SO4, […] min preincubation at room temperature): 0.252 µM |
| C#CCN1C(=O)C=C(C)OS1(=O)=O [b, 6-methyl-3-(prop-2-yn-1-yl)-1,2,3-oxathiazin-4(3H)-one 2,2-dioxide] | 358 | 378 | – | – | KI (hCA IX [2]): compound b exhibited a loss of inhibitory activity after the CO releasing group linkage; KI (hCA XII [3]): Compounds a and b showed better inhibitory activity against isoform XII |
| C#CCOc1cccc2cc(C(=O)c3ccccc3)c(=O)oc12 [f, 3-benzoyl-8-(prop-2-yn-1-yloxy)-2H-chromen-2-one] | – | 4920 | > 100000 | > 100000 | Ki (hCA IX [1]): 0.695 µM; KI (hCA XII [3]): maintained unchanged their inhibitory activity against hCA XII |
| C#CCOc1ccc2oc(=O)c(C(=O)c3ccccc3)cc2c1 [g, 3-benzoyl-6-(prop-2-yn-1-yloxy)-2H-chromen-2-one] | – | – | – | – | Ki (hCA IX [1]): 0.315 µM; Ki (hCA XII [6]): 0.353 µM |
| C#CCOc1cccc2cc(C(=O)OCC)c(=O)oc12 [h, ethyl 2-oxo-8-(prop-2-yn-1-yloxy)-2H-chromene-3-carboxylate] | – | – | > 100000 | > 100000 | – |
| C#CCOc1ccc(C2=NN(C(C)=O)C(c3ccccc3OC)C2)cc1 (stereo not shown) [i] | > 100000 | > 100000 | > 100000 | > 100000 | – |
| C#CCOc1ccc(-c2nc3ccccc3n2-c2ccccc2)cc1 [l] | > 100000 | > 100000 | > 100000 | > 100000 | – |
